Measurements: ChEMBL document CHEMBL4007388, “Synthesis and antiproliferative activity of monocationic arylthiophene derivatives” (Eur J Med Chem, 2017)

Experiments:
[1] = tested on: WI-38; test: Cytotoxicity against human WI38 cells assessed as reduction in cell viability after 24 hrs by MTT assay; format: cell-based; settings: WI-38, 24 h
[2] = tested on: WISH; test: Cytotoxicity against human WISH cells assessed as reduction in cell viability after 24 hrs by MTT assay; format: cell-based
[3] = Growth inhibition of human NCI60 cells at 10 uM after 48 hrs by SRB assay relative to control; values are per cent of control; settings: NCI60, 48 h
[4] = tested on: CCRF-CEM; test: Growth inhibition of human CCRF-CEM cells incubated for 48 hrs by sulforhodamine B assay; format: functional
[5] = tested on: HL-60(TB); test: Growth inhibition of human HL-60(TB) cells incubated for 48 hrs by sulforhodamine B assay; format: functional; settings: HL-60, 48 h
[6] = tested on: K562; test: Growth inhibition of human K562 cells incubated for 48 hrs by sulforhodamine B assay; format: functional; settings: K562, 48 h
[7] = tested on: MOLT-4; test: Growth inhibition of human MOLT4 cells incubated for 48 hrs by sulforhodamine B assay; format: functional; settings: MOLT-4, 48 h
[8] = tested on: RPMI-8226; test: Growth inhibition of human RPMI8226 cells incubated for 48 hrs by sulforhodamine B assay; format: functional; settings: RPMI-8226, 48 h
[9] = tested on: SR; test: Growth inhibition of human SR cells incubated for 48 hrs by sulforhodamine B assay; format: functional
[10] = tested on: A549; test: Growth inhibition of human A549/ATCC cells incubated for 48 hrs by sulforhodamine B assay; format: functional; settings: A549, 48 h
[11] = tested on: HOP-62; test: Growth inhibition of human HOP62 cells incubated for 48 hrs by sulforhodamine B assay; format: functional; settings: HOP-62, 48 h
[12] = tested on: HOP-92; test: Growth inhibition of human HOP92 cells incubated for 48 hrs by sulforhodamine B assay; format: functional; settings: HOP-92, 48 h
[13] = tested on: NCI-H226; test: Growth inhibition of human NCI-H226 cells incubated for 48 hrs by sulforhodamine B assay; format: functional; settings: NCI-H226, 48 h
[14] = tested on: NCI-H23; test: Growth inhibition of human NCI-H23 cells incubated for 48 hrs by sulforhodamine B assay; format: functional; settings: NCI-H23, 48 h
[15] = tested on: NCI-H460; test: Growth inhibition of human NCI-H460 cells incubated for 48 hrs by sulforhodamine B assay; format: functional; settings: NCI-H460, 48 h
[16] = tested on: NCI-H522; test: Growth inhibition of human NCI-H522 cells incubated for 48 hrs by sulforhodamine B assay; format: functional; settings: NCI-H522, 48 h
[17] = tested on: COLO 205; test: Growth inhibition of human COLO205 cells incubated for 48 hrs by sulforhodamine B assay; format: functional; settings: COLO 205, 48 h
[18] = tested on: HCC 2998; test: Growth inhibition of human HCC2998 cells incubated for 48 hrs by sulforhodamine B assay; format: functional; settings: HCC 2998, 48 h
[19] = tested on: HCT-116; test: Growth inhibition of human HCT116 cells incubated for 48 hrs by sulforhodamine B assay; format: functional; settings: HCT-116, 48 h
[20] = tested on: HCT-15; test: Growth inhibition of human HCT15 cells incubated for 48 hrs by sulforhodamine B assay; format: functional; settings: HCT-15, 48 h
[21] = tested on: HT-29; test: Growth inhibition of human HT-29 cells incubated for 48 hrs by sulforhodamine B assay; format: functional; settings: HT-29, 48 h
[22] = tested on: KM12; test: Growth inhibition of human KM12 cells incubated for 48 hrs by sulforhodamine B assay; format: functional; settings: KM12, 48 h
[23] = tested on: SW-620; test: Growth inhibition of human SW620 cells incubated for 48 hrs by sulforhodamine B assay; format: functional; settings: SW-620, 48 h
[24] = tested on: SF-268; test: Growth inhibition of human SF268 cells incubated for 48 hrs by sulforhodamine B assay; format: functional; settings: SF-268, 48 h
[25] = tested on: SF-295; test: Growth inhibition of human SF295 cells incubated for 48 hrs by sulforhodamine B assay; format: functional; settings: SF-295, 48 h
[26] = tested on: SF-539; test: Growth inhibition of human SF539 cells incubated for 48 hrs by sulforhodamine B assay; format: functional; settings: SF-539, 48 h
[27] = tested on: SNB-19; test: Growth inhibition of human SNB19 cells incubated for 48 hrs by sulforhodamine B assay; format: functional; settings: SNB-19, 48 h
[28] = tested on: U-251; test: Growth inhibition of human U251 cells incubated for 48 hrs by sulforhodamine B assay; format: functional; settings: U-251, 48 h
[29] = tested on: LOX IMVI; test: Growth inhibition of human LOXIMVI cells incubated for 48 hrs by sulforhodamine B assay; format: functional
[30] = tested on: M14; test: Growth inhibition of human M14 cells incubated for 48 hrs by sulforhodamine B assay; format: functional; settings: M14, 48 h
[31] = tested on: MDA-MB-435; test: Growth inhibition of human MDA-MB-435 cells incubated for 48 hrs by sulforhodamine B assay; format: functional; settings: MDA-MB-435, 48 h
[32] = tested on: SK-MEL-2; test: Growth inhibition of human SK-MEL-2 cells incubated for 48 hrs by sulforhodamine B assay; format: functional; settings: SK-MEL-2, 48 h
[33] = tested on: SK-MEL-28; test: Growth inhibition of human SK-MEL-28 cells incubated for 48 hrs by sulforhodamine B assay; format: functional; settings: SK-MEL-28, 48 h
[34] = tested on: SK-MEL-5; test: Growth inhibition of human SK-MEL-5 cells incubated for 48 hrs by sulforhodamine B assay; format: functional; settings: SK-MEL-5, 48 h
[35] = tested on: UACC-257; test: Growth inhibition of human UACC257 cells incubated for 48 hrs by sulforhodamine B assay; format: functional; settings: UACC-257, 48 h
[36] = tested on: UACC-62; test: Growth inhibition of human UACC62 cells incubated for 48 hrs by sulforhodamine B assay; format: functional; settings: UACC-62, 48 h
[37] = tested on: OVCAR-3; test: Growth inhibition of human OVCAR3 cells incubated for 48 hrs by sulforhodamine B assay; format: functional; settings: OVCAR-3, 48 h
[38] = tested on: OVCAR-8; test: Growth inhibition of human OVCAR8 cells incubated for 48 hrs by sulforhodamine B assay; format: functional; settings: OVCAR-8, 48 h
[39] = tested on: NCI/ADR-RES; test: Growth inhibition of human NCI/ADR-RES cells incubated for 48 hrs by sulforhodamine B assay; format: functional
[40] = tested on: SK-OV-3; test: Growth inhibition of human SKOV3 cells incubated for 48 hrs by sulforhodamine B assay; format: functional; settings: SK-OV-3, 48 h
[41] = tested on: 786-0; test: Growth inhibition of human 786-O cells incubated for 48 hrs by sulforhodamine B assay; format: functional; settings: 786-0, 48 h
[42] = tested on: ACHN; test: Growth inhibition of human ACHN cells incubated for 48 hrs by sulforhodamine B assay; format: functional
[43] = tested on: CAKI-1; test: Growth inhibition of human Caki1 cells incubated for 48 hrs by sulforhodamine B assay; format: functional; settings: CAKI-1, 48 h
[44] = tested on: SN12C; test: Growth inhibition of human SN12C cells incubated for 48 hrs by sulforhodamine B assay; format: functional
[45] = tested on: TK-10; test: Growth inhibition of human TK10 cells incubated for 48 hrs by sulforhodamine B assay; format: functional; settings: TK-10, 48 h
[46] = tested on: PC-3; test: Growth inhibition of human PC3 cells incubated for 48 hrs by sulforhodamine B assay; format: functional; settings: PC-3, 48 h
[47] = tested on: DU-145; test: Growth inhibition of human DU145 cells incubated for 48 hrs by sulforhodamine B assay; format: functional; settings: DU-145, 48 h
[48] = tested on: MCF7; test: Growth inhibition of human MCF7 cells incubated for 48 hrs by sulforhodamine B assay; format: functional; settings: MCF7, 48 h
[49] = tested on: Hs-578T; test: Growth inhibition of human Hs 578T cells incubated for 48 hrs by sulforhodamine B assay; format: functional
[50] = tested on: BT-549; test: Growth inhibition of human BT549 cells incubated for 48 hrs by sulforhodamine B assay; format: functional; settings: BT-549, 48 h
[51] = tested on: T47D; test: Growth inhibition of human T47D cells incubated for 48 hrs by sulforhodamine B assay; format: functional
[52] = tested on: MDA-MB-468; test: Growth inhibition of human MDA-MB-468 cells incubated for 48 hrs by sulforhodamine B assay; format: functional; settings: MDA-MB-468, 48 h
[53] = Antioxidant activity assessed as superoxide dismutase-like activity by measuring inhibition of superoxide radical anion production at 2 uM by NBT reduction assay relative to control; format: functional
[54] = tested on: Escherichia coli; test: Induction of Escherichia coli genomic DNA cleavage after 1 hr by agarose gel electrophoresis method
[55] = organism: Homo sapiens; test: Inhibition of PTK in human MCF7 cells at 1 uM preincubated for 2 hrs followed by poly-Glu-Tyr substrate addition by ELISA relative to control; format: cell-based

For `O=c1[nH]cc(F)c(=O)[nH]1` [FLUOROURACIL], the IC50 [1] was 9300 nM and the IC50 [2] was 7100 nM.

For `N=C(N)c1ccc(-c2ccc(-c3cccs3)s2)cc1` [4-(2,2'-BITHIOPHENE-5-YL)BENZAMIDINE], the growth percent at 10 µM [3] was 83.9%.

`N=C(N)c1ccc(-c2ccc(-c3cc(Cl)cc(Cl)c3)s2)cc1` showed a GI50 [4] of 1540 nM, a GI50 [5] of 1070 nM and a GI50 [6] of 225 nM. It also gave a GI50 [7] of 1180 nM, a GI50 [8] of 639 nM and a GI50 [9] of 284 nM. It also gave a GI50 [10] of 1520 nM, a GI50 [11] of 1690 nM and a GI50 [12] of 1710 nM. The GI50 [13] was 2090 nM, the GI50 [14] was 1750 nM and the GI50 [15] was 375 nM. For the same compound, the GI50 [16] was 2350 nM, the GI50 [17] was 304 nM and the GI50 [18] was 634 nM. It also gave a GI50 [19] of 468 nM, a GI50 [20] of 255 nM and a GI50 [21] of 379 nM. The GI50 [22] was 698 nM, the GI50 [23] was 318 nM and the GI50 [24] was 1630 nM. The GI50 [25] was 1380 nM, the GI50 [26] was 1970 nM and the GI50 [27] was 1200 nM. For the same compound, the GI50 [28] was 254 nM, the GI50 [29] was 155 nM and the GI50 [30] was 1540 nM. It also gave a GI50 [31] of 1520 nM, a GI50 [32] of 1990 nM and a GI50 [33] of 1710 nM. It also gave a GI50 [34] of 1600 nM, a GI50 [35] of 2480 nM and a GI50 [36] of 1550 nM. For the same compound, the GI50 [37] was 1700 nM, the GI50 [38] was 2420 nM and the GI50 [39] was 1930 nM. It also gave a GI50 [40] of 454 nM, a GI50 [41] of 1310 nM and a GI50 [42] of 1890 nM. It also gave a GI50 [43] of 1510 nM, a GI50 [44] of 1570 nM and a GI50 [45] of 1870 nM. The GI50 [46] was 1750 nM, the GI50 [47] was 970 nM and the GI50 [48] was 193 nM. For the same compound, the GI50 [49] was 2050 nM, the GI50 [50] was 2050 nM and the GI50 [51] was 1480 nM. For the same compound, the GI50 [52] was 1030 nM, the IC50 [1] was 138000 nM and the IC50 [2] was 156000 nM. For the same compound, the inhibition [53] was 62.3%, the Activity [54] was “Dose-dependent effect” and the inhibition [55] was 19 to 36%. It also gave a growth percent at 10 µM [3] of -70.3%.

With `CN(C)c1ccc(-c2ccc(-c3ccc(C(=N)N)c(F)c3)s2)cc1` the inhibition [53] was 56.7% and the Activity [54] was “Dose-dependent effect”.

For `N#Cc1ccc(-c2ccc(-c3ccc(Cl)cc3)s2)cc1F`, the inhibition [53] was 35.3%.
